Assay results reported in patent US7470518B2 (priority 2002, dated 2008).

Assays:
PC-12 cells = assay: Whole-cell patch clamp current response of PC-12 cells to 1 mM acetylcholine (re-sensitization and scanning experiments); type: cell-based; conditions: decrease of mean whole-cell current
Text: (§1) The patch clamp electrode solution contained 100-mM KCl, 2-mM MgCl2, 1-mM CaCl2, 11-mM EGTA, and 10-mM HEPES; pH was adjusted to 7.2 with KOH.
(§2) In these applications, as discussed above, both the flow rate of the fluids exiting the microchannels and the scan rate of the patch clamped cell are important. […] The width of each channel is 100 μm, the thickness is 50 μm, and the interchannel spacing is 25 μm. The procedure used for fabricating the microchannels and for patch clamping are identical to that described in Example 2 (see above). The patch clamped cell used was a PC-12 cell, which was placed between 10 to 20 micrometers away from the outlets of the microchannels. Channels 1, 3, 5 and 7 were filled with PBS buffer, while channels 2, 4 and 6 were filled with acetylcholine. The flow rate of the fluid streams was 6.8 mm/s.

GABAA receptors = molecular target: T1, GABAA receptors (UniProt P28472+P62813); assay: Whole-cell patch clamp antagonist dose-response, bicuculline loaded together with GABA, microfluidic scanning; type: cell-based; conditions: for IC50: with 100 μM GABA
T1 construct: expressed in transfected cells; host or cells: WSS-1 cells
Protocol: Electrophysiology experiments were performed using a commercially available microfluidic device for patch-clamp (Dynaflow 16, Cellectricon AB, Göteborg Sweden). The device has 16 channels of dimensions 50×57 μm (w×h) separated by 22 μm thick walls at the point of exit into the open volume. The volume of the 16 sample reservoirs is 80 μl and the dimensions of the open volume are 30×35 mm. Prior to experiments the device was loaded with different solutions using a micropipette. A 2 mm thick polycarbonate lid was attached over the sample reservoirs using double adhesive tape (3M, Stockholm, Sweden) to create a closed system. The lid was connected to a syringe with PE tubing and a syringe pump (CMA/100, microinjection pump, Carnegie Medicine, Cambridge, UK) was used to compress the air enclosed by the lid to initiate a well defined pressure driven flow in the channels.
Adherent WSS-1 cells were cultivated in Petri dishes for 4-8 days in (DMEM/F12) medium supplemented with antibiotics and antimycotin (0.2%), fetal calf serum (10%), and L-glutamine. Before the experiments, cells were washed and detached in a HEPES-saline buffer (HBS) containing (in mM): 10 HEPES, 140 NaCl, 5 KCl, 1 CaCl2, 1 MgCl2, and 10 D-glucose (pH 7.4). All chemicals used in the cell cultures were from Sigma-Aldrich (Sigma-Aldrich Sweden AB, Stockholm, Sweden).
Patch clamp experiments were carried out in the whole-cell configuration (holding potential −60 mV, sampling frequency 5 kHz filter frequency 1 KHz). The cell bath solution (HBS) contained 10-mM HEPES, 140 -mM NaCl, 5-mM KCl, 1-mM CaCl2, 1-mM MgCl2, 10-mM D-glucose (pH 7.4). The patch clamp electrode solution contained 100-mM KCl, 2-mM MgCl2, 1-mM CaCl2, 11-mM EGTA, and 10-mM HEPES; pH was adjusted to 7.2 with KOH. The experiments were performed at room temperature (18-22° C.).
The competitive antagonist bicuculline was used at the concentrations of 0.01, 0.1, 1, 5, 10, 100 μM. […] As in the experiments with agonist, every second channel was filled with buffer solution for cleansing, and a resting time in buffer of at least three minutes was used before a return scan was made. Dose-response curves were obtained with texp of 100 ms and 3 s. […] FIGS. 34a and b show the results of a patch-clamp experiment. […] These sample channels were interdigitized with buffer channels in every other channel, and the exposure time were set to either 100 ms or 3 s.

PC-12 cell = tested on: PC-12 cell
Text: as §1, §2
The channel structure and experimental setup used in Example 3 can be used to carry out dose-response measurements, in which the concentrations of the ligands in each of the ligand streams differ by predetermined amounts. […] In this 7-channel structure, channels 1, 3, 5 and 7 were filled with PBS buffer, whereas channels 2, 4, and 6 were filled with 1 μM, 12 μM, and 200 μM nicotine, respectively. The flow rate used was 3.24 mm/s and the cell-scanning speed was 250 μm/s. The patch-clamped cell was placed between 10 to 20 μm away from the outlet of the microchannel.

T1 sequence (P62813 28-455): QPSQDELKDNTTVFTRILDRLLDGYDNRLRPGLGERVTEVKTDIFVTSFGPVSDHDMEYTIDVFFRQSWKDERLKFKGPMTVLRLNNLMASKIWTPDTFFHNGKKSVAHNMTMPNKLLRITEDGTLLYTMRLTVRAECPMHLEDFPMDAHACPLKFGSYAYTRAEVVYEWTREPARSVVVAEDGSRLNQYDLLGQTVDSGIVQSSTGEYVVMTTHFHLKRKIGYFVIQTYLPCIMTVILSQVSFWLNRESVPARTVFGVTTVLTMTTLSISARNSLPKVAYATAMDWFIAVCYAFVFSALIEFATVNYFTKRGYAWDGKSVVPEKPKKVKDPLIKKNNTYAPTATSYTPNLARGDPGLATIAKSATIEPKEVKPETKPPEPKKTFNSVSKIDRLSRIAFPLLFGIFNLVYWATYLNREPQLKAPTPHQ
T1 sequence (P28472 26-473): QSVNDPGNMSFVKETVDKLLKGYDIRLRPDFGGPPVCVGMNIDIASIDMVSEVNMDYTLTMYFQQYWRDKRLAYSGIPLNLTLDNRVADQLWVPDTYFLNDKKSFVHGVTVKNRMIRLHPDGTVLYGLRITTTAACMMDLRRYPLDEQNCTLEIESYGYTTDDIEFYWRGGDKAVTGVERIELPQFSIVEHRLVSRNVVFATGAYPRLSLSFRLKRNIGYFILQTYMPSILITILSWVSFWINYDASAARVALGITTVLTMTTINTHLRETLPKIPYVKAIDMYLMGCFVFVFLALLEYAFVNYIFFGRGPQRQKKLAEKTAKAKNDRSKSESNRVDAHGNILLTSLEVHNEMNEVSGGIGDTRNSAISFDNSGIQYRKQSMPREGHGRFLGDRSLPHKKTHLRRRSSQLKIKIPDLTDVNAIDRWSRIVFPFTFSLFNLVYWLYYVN
T1 sequence (P18508 39-466 partner): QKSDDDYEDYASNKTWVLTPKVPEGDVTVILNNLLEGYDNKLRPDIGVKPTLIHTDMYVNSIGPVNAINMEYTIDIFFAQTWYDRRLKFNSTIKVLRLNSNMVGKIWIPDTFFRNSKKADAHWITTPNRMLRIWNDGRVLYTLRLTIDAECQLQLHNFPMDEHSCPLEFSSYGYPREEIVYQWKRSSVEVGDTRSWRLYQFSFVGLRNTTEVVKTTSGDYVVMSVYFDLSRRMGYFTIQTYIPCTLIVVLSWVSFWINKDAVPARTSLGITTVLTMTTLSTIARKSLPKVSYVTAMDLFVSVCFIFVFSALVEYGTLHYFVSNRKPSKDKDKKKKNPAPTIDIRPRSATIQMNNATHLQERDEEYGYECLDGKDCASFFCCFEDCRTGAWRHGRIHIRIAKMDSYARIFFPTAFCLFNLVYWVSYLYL

CC(=O)OCC[N+](C)(C)C [acetylcholine]
exposure time to the agonist after which de-sensitization of the current response is observed (PC-12 cells): > 5 s

CN1CCc2cc3c(cc2[C@H]1[C@@H]1OC(=O)c2c1ccc1c2OCO1)OCO3 [bicuculline]
IC20 (GABAA receptors): ~1 µM | IC50 (GABAA receptors; IC50, ascending order, texp=3 s): 8.46 ± 1.4 µM | IC50 (GABAA receptors; IC50, ascending order, texp=100 ms): 5.17 ± 0.4 µM | IC50 (GABAA receptors; IC50, descending order, texp=3 s): 1.84 ± 0.4 µM | IC50 (GABAA receptors; IC50, descending order, texp=100 ms): 3.56 ± 0.9 µM

CN1CCCC1c1cccnc1 (centres unmarked) [nicotine]
whole-cell current response (PC-12 cell; 1 μM nicotine): barely discernible | whole-cell current peak (PC-12 cell; 12 μM nicotine): detected with good signal-to-noise ratio
